Measured values published in PMC6496074, “The Evolution of Azole Resistance in Candida albicans Sterol 14α-Demethylase (CYP51) through Incremental Amino Acid Substitutions” (Antimicrobial Agents and Chemotherapy, 2019).
Where “and” joins values, the source holds several entries; their conditions need not be identical. Identical values can stand only once.

Tests used:
Experiment in all cases: CYP51 reconstitution assay
Format in all cases: biochemical
CaCYP51 F145L = target: T1, CaCYP51 F145L (Candida albicans, UniProt P10613, F145L)
T1 construct: made in house; host or cells: E. coli DH5α (pCWori+)
Protocol: (§1) Azole antifungal agents were added in 2.5 μl dimethyl sulfoxide, followed by 10 min of incubation at 37°C prior to assay initiation with 4 mM β-NADPH-Na4. The samples were then shaken for 15 min at 37°C. Sterol metabolites were recovered by extraction with ethyl acetate, followed by derivatization with 0.1 ml N,O-bis(trimethylsilyl)trifluoroacetamide (BSTFA)–trimethylchlorosilane (TMCS) (99:1) and 0.3 ml anhydrous pyridine (2 h at 80°C), prior to analysis by gas chromatography-mass spectrometry (GC-MS) ([52]). IC50 determinations were performed in duplicate.

CaCYP51 G450E = target: T2, CaCYP51 G450E (Candida albicans, UniProt P10613, G450E)
T2 construct: made in house; host or cells: E. coli DH5α (pCWori+)
Protocol: as §1

CaCYP51 V456I = target: T3, CaCYP51 V456I (Candida albicans, UniProt P10613, V456I)
T3 construct: made in house; host or cells: E. coli DH5α (pCWori+)
Protocol: as §1

CaCYP51 Y118A = target: T4, CaCYP51 Y118A (Candida albicans, UniProt P10613, Y118A)
T4 construct: made in house; host or cells: E. coli DH5α (pCWori+)
Protocol: as §1

CaCYP51 Y132F = target: T5, CaCYP51 Y132F (Candida albicans, UniProt P10613, Y132F)
T5 construct: made in house; host or cells: E. coli DH5α (pCWori+)
T5 sequence (P10613 whole entry, looked up, stated change not applied): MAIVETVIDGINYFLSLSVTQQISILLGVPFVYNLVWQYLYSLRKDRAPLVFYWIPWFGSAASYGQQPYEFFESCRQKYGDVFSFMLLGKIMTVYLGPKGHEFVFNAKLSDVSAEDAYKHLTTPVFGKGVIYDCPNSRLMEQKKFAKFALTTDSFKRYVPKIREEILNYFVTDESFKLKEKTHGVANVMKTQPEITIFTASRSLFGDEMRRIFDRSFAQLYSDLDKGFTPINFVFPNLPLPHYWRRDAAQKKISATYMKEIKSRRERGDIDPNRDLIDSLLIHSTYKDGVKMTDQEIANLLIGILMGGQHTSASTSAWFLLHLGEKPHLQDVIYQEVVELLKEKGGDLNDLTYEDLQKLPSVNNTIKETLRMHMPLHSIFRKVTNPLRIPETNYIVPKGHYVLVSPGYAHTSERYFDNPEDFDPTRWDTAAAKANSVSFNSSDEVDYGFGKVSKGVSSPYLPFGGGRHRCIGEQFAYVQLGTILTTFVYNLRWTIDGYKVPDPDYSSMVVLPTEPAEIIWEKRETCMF
Protocol: as §1

CaCYP51 D278N = target: T6, CaCYP51 D278N (Candida albicans, UniProt P10613, D278N)
T6 construct: made in house; host or cells: E. coli DH5α (pCWori+)
Protocol: as §1

CaCYP51 Wild type = target: T7, CaCYP51 Wild type (Candida albicans, UniProt P10613); conditions: Wild type
T7 construct: made in house; host or cells: E. coli DH5α (pCWori+)
T7 sequence (P10613 whole entry, looked up, natural form): as the sequence (P10613 whole entry, looked up, stated change not applied) above
Protocol: as §1

CaCYP51 Y257H = target: T8, CaCYP51 Y257H (Candida albicans, UniProt P10613, Y257H)
T8 construct: made in house; host or cells: E. coli DH5α (pCWori+)
Protocol: as §1

CaCYP51 I471T = target: T9, CaCYP51 I471T (Candida albicans, UniProt P10613, I471T)
T9 construct: made in house; host or cells: E. coli DH5α (pCWori+)
Protocol: as §1

CaCYP51 G307S = target: T10, CaCYP51 G307S (Candida albicans, UniProt P10613, G307S)
T10 construct: made in house; host or cells: E. coli DH5α (pCWori+)
T10 sequence (P10613 whole entry, looked up, stated change not applied): as above
Protocol: as §1

CaCYP51 S405F = target: T11, CaCYP51 S405F (Candida albicans, UniProt P10613, S405F)
T11 construct: made in house; host or cells: E. coli DH5α (pCWori+)
T11 sequence (P10613 whole entry, looked up, stated change not applied): as above
Protocol: as §1

CaCYP51 G448E = target: T12, CaCYP51 G448E (Candida albicans, UniProt P10613, G448E)
T12 construct: made in house; host or cells: E. coli DH5α (pCWori+)
Protocol: as §1

CaCYP51 V488I = target: T13, CaCYP51 V488I (Candida albicans, UniProt P10613, V488I); conditions: mean ± SD, duplicate
T13 construct: made in house; host or cells: E. coli DH5α (pCWori+)
Protocol: as §1

CaCYP51 G307S+G450E = target: T14, CaCYP51 G307S+G450E (Candida albicans, UniProt P10613, G307S/G450E)
T14 construct: made in house; host or cells: E. coli DH5α (pCWori+)
T14 sequence (P10613 whole entry, looked up, stated change not applied): as above
Protocol: as §1

CaCYP51 F126V = target: T15, CaCYP51 F126V (Candida albicans, UniProt P10613, F126V)
T15 construct: made in house; host or cells: E. coli DH5α (pCWori+)
T15 sequence (P10613 whole entry, looked up, stated change not applied): as above
Protocol: as §1

CaCYP51 P230L = target: T16, CaCYP51 P230L (Candida albicans, UniProt P10613, P230L)
T16 construct: made in house; host or cells: E. coli DH5α (pCWori+)
Protocol: as §1

CaCYP51 K143R = target: T17, CaCYP51 K143R (Candida albicans, UniProt P10613, K143R); conditions: mean ± SD, duplicate
T17 construct: made in house; host or cells: E. coli DH5α (pCWori+)
Protocol: as §1

CaCYP51 R467K = target: T18, CaCYP51 R467K (Candida albicans, UniProt P10613, R467K)
T18 construct: made in house; host or cells: E. coli DH5α (pCWori+)
Protocol: as §1

CaCYP51 Y132H+K143R = target: T19, CaCYP51 Y132H+K143R (Candida albicans, UniProt P10613, K143R/Y132H)
T19 construct: made in house; host or cells: E. coli DH5α (pCWori+)
Protocol: as §1

CaCYP51 G464S = target: T20, CaCYP51 G464S (Candida albicans, UniProt P10613, G464S)
T20 construct: made in house; host or cells: E. coli DH5α (pCWori+)
T20 sequence (P10613 whole entry, looked up, stated change not applied): as above
Protocol: as §1

CaCYP51 Y132H = target: T21, CaCYP51 Y132H (Candida albicans, UniProt P10613, Y132H); conditions: mean ± SD, duplicate
T21 construct: made in house; host or cells: E. coli DH5α (pCWori+)
Protocol: as §1

CaCYP51 Q474K = target: T22, CaCYP51 Q474K (Candida albicans, UniProt P10613, Q474K)
T22 construct: made in house; host or cells: E. coli DH5α (pCWori+)
Protocol: as §1

CaCYP51 S279F = target: T23, CaCYP51 S279F (Candida albicans, UniProt P10613, S279F)
T23 construct: made in house; host or cells: E. coli DH5α (pCWori+)
T23 sequence (P10613 whole entry, looked up, stated change not applied): as above
Protocol: as §1

CaCYP51 V437I = target: T24, CaCYP51 V437I (Candida albicans, UniProt P10613, V437I)
T24 construct: made in house; host or cells: E. coli DH5α (pCWori+)
Protocol: as §1

CaCYP51 F449Y = target: T25, CaCYP51 F449Y (Candida albicans, UniProt P10613, F449Y)
T25 construct: made in house; host or cells: E. coli DH5α (pCWori+)
T25 sequence (P10613 whole entry, looked up, stated change not applied): as above
Protocol: as §1

[1] = 0.25 h, 4 μM triazole, % of activity without triazole, read-out: Residual CYP51 activity (%) ± SD

CCC(C)n1ncn(-c2ccc(N3CCN(c4ccc(OCC5COC(Cn6cncn6)(c6ccc(Cl)cc6Cl)O5)cc4)CC3)cc2)c1=O (centres unmarked) [Itraconazole, itraconazole]
remaining activity at 4 µM (CaCYP51 F145L; [1]): 1.99 ± 0.04%
IC50 (CaCYP51 F145L; mean ± SD, duplicate): 0.3 ± 0.013 µM
remaining activity at 4 µM (CaCYP51 G450E; [1]): 7.66 ± 0.54%
IC50 (CaCYP51 G450E; mean ± SD, duplicate): 0.458 ± 0.07 µM
remaining activity at 4 µM (CaCYP51 V456I; [1]): 3.21 ± 0.07%
IC50 (CaCYP51 V456I; mean ± SD, duplicate): 0.603 ± 0.002 µM
remaining activity at 4 µM (CaCYP51 Y118A; [1]): 1.3 ± 0.59%
IC50 (CaCYP51 Y118A; mean ± SD, duplicate): 0.17 ± 0.016 µM
remaining activity at 4 µM (CaCYP51 Y132F; [1]): 0.19 ± 0.04%
IC50 (CaCYP51 Y132F; mean ± SD, duplicate): 0.309 ± 0.003 µM
remaining activity at 4 µM (CaCYP51 D278N; [1]): 3 ± 0.19%
IC50 (CaCYP51 D278N; mean ± SD, duplicate): 0.545 ± 0.044 µM
remaining activity at 4 µM (CaCYP51 Wild type; [1]): 0.03 ± 0.02%
IC50 (CaCYP51 Wild type; mean ± SD, duplicate, read-out: IC50): 0.39 µM and 0.389 µM
remaining activity at 4 µM (CaCYP51 Y257H; [1]): 1.37 ± 0.28%
IC50 (CaCYP51 Y257H; mean ± SD, duplicate): 0.336 ± 0.014 µM
remaining activity at 4 µM (CaCYP51 I471T; [1]): 1.21 ± 0.01%
IC50 (CaCYP51 I471T; mean ± SD, duplicate): 0.218 ± 0.002 µM
remaining activity at 4 µM (CaCYP51 G307S; [1]): 0.53 ± 0.21%
IC50 (CaCYP51 G307S; mean ± SD, duplicate): 0.225 ± 0.007 µM
remaining activity at 4 µM (CaCYP51 S405F; [1]): 2.73 ± 0.13%
IC50 (CaCYP51 S405F; mean ± SD, duplicate): 0.35 ± 0.019 µM
remaining activity at 4 µM (CaCYP51 G448E; [1]): 1.75 ± 0.26%
IC50 (CaCYP51 G448E; mean ± SD, duplicate): 0.238 ± 0.013 µM
IC50 (CaCYP51 V488I): 0.449 ± 0.016 µM
remaining activity at 4 µM (CaCYP51 G307S+G450E; [1]): 0.2 ± 0.04%
IC50 (CaCYP51 G307S+G450E; mean ± SD, duplicate): 0.318 ± 0.017 µM
remaining activity at 4 µM (CaCYP51 F126V; [1]): 0.22 ± 0.05%
IC50 (CaCYP51 F126V; mean ± SD, duplicate): 0.206 ± 0.009 µM
remaining activity at 4 µM (CaCYP51 P230L; [1]): 0.06 ± 0.01%
IC50 (CaCYP51 P230L; mean ± SD, duplicate): 0.265 ± 0.038 µM
IC50 (CaCYP51 K143R): 0.45 ± 0.016 µM
remaining activity at 4 µM (CaCYP51 R467K; [1]): 0.45 ± 0.17%
IC50 (CaCYP51 R467K; mean ± SD, duplicate): 0.235 ± 0.018 µM
remaining activity at 4 µM (CaCYP51 Y132H+K143R; [1]): 0.7 ± 0.03%
IC50 (CaCYP51 Y132H+K143R; mean ± SD, duplicate): 0.237 ± 0.007 µM
remaining activity at 4 µM (CaCYP51 G464S; [1]): 0.54 ± 0.11%
IC50 (CaCYP51 G464S; mean ± SD, duplicate): 0.282 ± 0.006 µM
IC50 (CaCYP51 Y132H): 0.15 ± 0.028 µM
remaining activity at 4 µM (CaCYP51 Q474K; [1]): 0.49 ± 0.04%
IC50 (CaCYP51 Q474K; mean ± SD, duplicate): 0.246 ± 0.006 µM
remaining activity at 4 µM (CaCYP51 S279F; [1]): 5.97 ± 0.35%
IC50 (CaCYP51 S279F; mean ± SD, duplicate): 0.569 ± 0.121 µM
remaining activity at 4 µM (CaCYP51 V437I; [1]): 0.13 ± 0.02%
IC50 (CaCYP51 V437I; mean ± SD, duplicate): 0.293 ± 0.022 µM
remaining activity at 4 µM (CaCYP51 F449Y; [1]): 0.84 ± 0.57%
IC50 (CaCYP51 F449Y; mean ± SD, duplicate): 0.222 ± 0.011 µM
